In ChEMBL document CHEMBL1149774, “Synthesis of N-(5,7-diamino-3-phenyl-quinoxalin-2-yl)-3,4,5-substituted anilines and N-[4[(5,7-diamino-3-phenylquinoxalin-2-yl)amino]benzoyl]-l-glutamic acid diethyl ester: evaluation of in vitro anti-cancer and anti-folate activities” (Eur J Med Chem, 2008):

Tests used:
Type in all cases: functional
HOP-62 = experiment: Growth inhibition of human HOP62 cells after 48 hrs by SRB staining method; details: HOP-62, 48 h
NCI-H226 = experiment: Growth inhibition of human NCI-H226 cells after 48 hrs by SRB staining method; details: NCI-H226, 48 h
NCI-H23 = experiment: Growth inhibition of human NCI-H23 cells after 48 hrs by SRB staining method; details: NCI-H23, 48 h
NCI-H460 = experiment: Growth inhibition of human NCI-H460 cells after 48 hrs by SRB staining method; details: NCI-H460, 48 h
NCI-H522 = experiment: Growth inhibition of human NCI-H522 cells after 48 hrs by SRB staining method; details: NCI-H522, 48 h
HCT-15 = experiment: Growth inhibition of human HCT15 cells after 48 hrs by SRB staining method; details: HCT-15, 48 h
KM12 = experiment: Growth inhibition of human KM12 cells after 48 hrs by SRB staining method; details: KM12, 48 h
SF-295 = experiment: Growth inhibition of human SF295 cells after 48 hrs by SRB staining method; details: SF-295, 48 h
SNB-19 = experiment: Growth inhibition of human SNB19 cells after 48 hrs by SRB staining method; details: SNB-19, 48 h
LOX IMVI = experiment: Growth inhibition of human LOX IMVI cells after 48 hrs by SRB staining method
Malme-3M = experiment: Growth inhibition of human MALME-3M cells after 48 hrs by SRB staining method
M14 = experiment: Growth inhibition of human M14 cells after 48 hrs by SRB staining method; details: M14, 48 h
SK-MEL-2 = experiment: Growth inhibition of human SK-MEL-2 cells after 48 hrs by SRB staining method; details: SK-MEL-2, 48 h
SK-MEL-5 = experiment: Growth inhibition of human SK-MEL-5 cells after 48 hrs by SRB staining method; details: SK-MEL-5, 48 h
UACC-257 = experiment: Growth inhibition of human UACC257 cells after 48 hrs by SRB staining method; details: UACC-257, 48 h
UACC-62 = experiment: Growth inhibition of human UACC62 cells after 48 hrs by SRB staining method; details: UACC-62, 48 h
IGROV-1 = experiment: Growth inhibition of human IGROV1 cells after 48 hrs by SRB staining method; details: IGROV-1, 48 h
OVCAR-4 = experiment: Growth inhibition of human OVCAR4 cells after 48 hrs by SRB staining method; details: OVCAR-4, 48 h
SK-OV-3 = experiment: Growth inhibition of human SKOV3 cells after 48 hrs by SRB staining method; details: SK-OV-3, 48 h
786-0 = experiment: Growth inhibition of human 786-0 cells after 48 hrs by SRB staining method; details: 786-0, 48 h
A498 = experiment: Growth inhibition of human A498 cells after 48 hrs by SRB staining method; details: A498, 48 h
ACHN = experiment: Growth inhibition of human ACHN cells after 48 hrs by SRB staining method
RXF 393 = experiment: Growth inhibition of human RXF393 cells after 48 hrs by SRB staining method; details: RXF 393, 48 h
SN12C = experiment: Growth inhibition of human SN12C cells after 48 hrs by SRB staining method
UO-31 = experiment: Growth inhibition of human UO31 cells after 48 hrs by SRB staining method; details: UO-31, 48 h
PC-3 = experiment: Growth inhibition of human PC3 cells after 48 hrs by SRB staining method; details: PC-3, 48 h
DU-145 = experiment: Growth inhibition of human DU145 cells after 48 hrs by SRB staining method; details: DU-145, 48 h
MCF7 = experiment: Growth inhibition of human MCF7 cells after 48 hrs by SRB staining method; details: MCF7, 48 h
NCI/ADR-RES = experiment: Growth inhibition of human NCI/ADR-RES cells after 48 hrs by SRB staining method
[1] = Growth inhibition of human HS 578T cells after 48 hrs by SRB staining method
MDA-MB-435 = experiment: Growth inhibition of human MDA-MB-435 cells after 48 hrs by SRB staining method; details: MDA-MB-435, 48 h
T47D = experiment: Growth inhibition of human T47D cells after 48 hrs by SRB staining method
[2] = read-out: pLC50 (the source's name) (converted)

COc1ccc(Nc2nc3cc(N)cc(N)c3nc2-c2ccccc2)cc1OC
GI50 (HOP-62): 34.7 µM | LC50 (HOP-62): > 100 µM | TGI (HOP-62; read-out: pTGI (converted)): > 100 µM | GI50 (NCI-H226): 18.6 µM | LC50 (NCI-H226): > 100 µM | TGI (NCI-H226; read-out: pTGI (converted)): 57.5 µM | GI50 (NCI-H23): 26.3 µM | LC50 (NCI-H23): > 100 µM | TGI (NCI-H23; read-out: pTGI (converted)): 79.4 µM | GI50 (NCI-H460): 20.4 µM | LC50 (concentration killing 50% of cells) (NCI-H460): > 100 µM | TGI (NCI-H460; read-out: pTGI (converted)): > 100 µM | GI50 (NCI-H522): 28.8 µM | LC50 (NCI-H522): > 100 µM | TGI (NCI-H522; read-out: pTGI (converted)): > 100 µM | GI50 (HCT-15): 28.8 µM | LC50 (HCT-15): > 100 µM | TGI (HCT-15; read-out: pTGI (converted)): > 100 µM | GI50 (KM12): 14.8 µM | LC50 (KM12): 69.2 µM | TGI (KM12; read-out: pTGI (converted)): 32.4 µM | GI50 (SF-295): 17 µM | LC50 (SF-295): > 100 µM | TGI (SF-295; read-out: pTGI (converted)): 45.7 µM | GI50 (SNB-19): 35.5 µM | LC50 (SNB-19): > 100 µM | TGI (SNB-19; read-out: pTGI (converted)): > 100 µM | GI50 (LOX IMVI): 25.7 µM | LC50 (LOX IMVI): > 100 µM | TGI (LOX IMVI; read-out: pTGI (converted)): 72.4 µM | GI50 (Malme-3M): 15.8 µM | LC50 (Malme-3M): 81.3 µM | TGI (Malme-3M; read-out: pTGI (converted)): 35.5 µM | GI50 (M14): 20.9 µM | LC50 (M14): > 100 µM | TGI (M14; read-out: pTGI (converted)): 69.2 µM | GI50 (SK-MEL-2): 26.9 µM | LC50 (SK-MEL-2): > 100 µM | TGI (SK-MEL-2; read-out: pTGI (converted)): > 100 µM | GI50 (SK-MEL-5): 12.3 µM | LC50 (SK-MEL-5): 53.7 µM | TGI (SK-MEL-5; read-out: pTGI (converted)): 25.7 µM | GI50 (UACC-257): 35.5 µM | LC50 (UACC-257): > 100 µM | TGI (UACC-257; read-out: pTGI (converted)): > 100 µM | GI50 (UACC-62): 13.5 µM | LC50 (UACC-62): 56.2 µM | TGI (UACC-62; read-out: pTGI (converted)): 27.5 µM | GI50 (IGROV-1): 24.5 µM | LC50 (IGROV-1): > 100 µM | TGI (IGROV-1; read-out: pTGI (converted)): > 100 µM | GI50 (OVCAR-4): 18.6 µM | LC50 (OVCAR-4): > 100 µM | TGI (OVCAR-4; read-out: pTGI (converted)): 52.5 µM | GI50 (SK-OV-3): 38 µM | CC50 (SK-OV-3; [2]): > 100 µM | TGI (SK-OV-3; read-out: pTGI (converted)): 87.1 µM | GI50 (786-0): 24 µM | CC50 (786-0; [2]): > 100 µM | TGI (786-0; read-out: pTGI (converted)): 91.2 µM | GI50 (A498): 11.7 µM | CC50 (A498; [2]): > 100 µM | TGI (A498; read-out: pTGI (converted)): 56.2 µM | GI50 (ACHN): 27.5 µM | CC50 (ACHN; [2]): > 100 µM | TGI (ACHN; read-out: pTGI (converted)): > 100 µM | GI50 (RXF 393): 8.13 µM | CC50 (RXF 393; [2]): > 100 µM | TGI (RXF 393; read-out: pTGI (converted)): 49 µM | GI50 (SN12C): 16.6 µM | CC50 (SN12C; [2]): > 100 µM | TGI (SN12C; read-out: pTGI (converted)): 43.7 µM | GI50 (UO-31): 28.2 µM | CC50 (UO-31; [2]): > 100 µM | TGI (UO-31; read-out: pTGI (converted)): > 100 µM | GI50 (PC-3): 14.1 µM | CC50 (PC-3; [2]): 93.3 µM | TGI (PC-3; read-out: pTGI (converted)): 36.3 µM | GI50 (DU-145): 44.7 µM | CC50 (DU-145; [2]): > 100 µM | TGI (DU-145; read-out: pTGI (converted)): > 100 µM | GI50 (MCF7): 20.4 µM | CC50 (MCF7; [2]): 97.7 µM | TGI (MCF7; read-out: pTGI (converted)): 44.7 µM | GI50 (NCI/ADR-RES): 17.4 µM | CC50 (NCI/ADR-RES; [2]): > 100 µM | TGI (NCI/ADR-RES; read-out: pTGI (converted)): 42.7 µM | GI50 [1]: 18.6 µM | CC50 [1, 2]: > 100 µM | TGI ([1]; read-out: pTGI (converted)): 50.1 µM | GI50 (MDA-MB-435): 16.2 µM | CC50 (MDA-MB-435; [2]): 63.1 µM | TGI (MDA-MB-435; read-out: pTGI (converted)): 32.4 µM | GI50 (T47D): 14.5 µM | CC50 (T47D; [2]): > 100 µM | TGI (T47D; read-out: pTGI (converted)): 38 µM
